Results on one compound are retold here after ChEMBL document CHEMBL6127037, “Design, synthesis, and biological evaluation of imidazolylacetophenone oxime derivatives as novel brain-penetrant agents for Alzheimer's disease treatment” (Eur J Med Chem, 2024).

Data set [1] is described as follows: Drug distribution in ICR mouse liver measured at 1.25 mins by micro-PET/CT imaging analysis. As to conditions: in vivo, 75 s; call rule not given here. The class given is ADME, tissue-based.
Data set [2] in a line: Drug distribution in ICR mouse brain measured at 1.25 mins by micro-PET/CT imaging analysis. The class given is ADME, tissue-based. As to conditions: in vivo, 75 s.
A short description of data set [3]: Drug distribution in ICR mouse heart measured at 1.25 mins by micro-PET/CT imaging analysis. The class given is ADME, tissue-based. Conditions: in vivo, 75 s.
A short description of data set [4]: Drug distribution in ICR mouse lung measured at 1.25 mins by micro-PET/CT imaging analysis. In kind it is ADME, tissue-based. Conditions: in vivo, 75 s.
Data set [5] is described as follows: Drug distribution in ICR mouse kidney measured at 1.25 mins by micro-PET/CT imaging analysis. In kind it is ADME, tissue-based. As to conditions: in vivo, 75 s.
Data set [6] can be described thus: Drug distribution in ICR mouse liver measured at 60 mins by micro-PET/CT imaging analysis. In kind it is ADME, tissue-based. Conditions: in vivo, 1 h.
Data set [7] in a line: Drug distribution in ICR mouse brain measured at 60 mins by micro-PET/CT imaging analysis. In kind it is ADME, tissue-based. Conditions: in vivo, 1 h.
Data set [8] can be described thus: Drug distribution in ICR mouse heart measured at 60 mins by micro-PET/CT imaging analysis. In kind it is ADME, tissue-based. As to conditions: in vivo, 1 h.
A short description of data set [9]: Drug distribution in ICR mouse lung measured at 60 mins by micro-PET/CT imaging analysis. Conditions: in vivo, 1 h. The class given is ADME, tissue-based.
The nature of data set [10]: Drug distribution in ICR mouse kidney measured at 60 mins by micro-PET/CT imaging analysis. In kind it is ADME, tissue-based. Conditions: in vivo, 1 h.
Data set [11] is described as follows: Drug distribution in ICR mouse kidney measured at 5.5 mins by micro-PET/CT imaging analysis. The class given is ADME, tissue-based. Conditions: in vivo.
Data set [12] is described as follows: Drug distribution in ICR mouse bone measured at 1.25 to 57.5 mins by micro-PET/CT imaging analysis. In kind it is ADME, tissue-based, Bone element. As to conditions: in vivo, time 1.25-57.5 min.
Data set [13] in a line: Drug distribution in ICR mouse muscle measured at 1.25 to 57.5 mins by micro-PET/CT imaging analysis. In kind it is ADME, tissue-based, Muscle tissue. Conditions: in vivo, time 1.25-57.5 min.
Data set [14] in a line: Drug distribution in ICR mouse brain measured at 1 mins by micro-PET/CT imaging analysis. In kind it is ADME, tissue-based. As to conditions: in vivo.
Data set [15] is described as follows: Drug distribution in ICR mouse brain measured after 4 to 5 mins by micro-PET/CT imaging analysis. The class given is ADME, tissue-based. Conditions: in vivo, time 4-5 min.

In the case of `[18F]CCO/N=C(\Cn1ccnc1)c1ccc2c(c1)OCO2`, the Drug uptake in data set [1] is on record as 18.1 %ID/cc; in data set [2], 7.4 %ID/cc; in [3], 5 %ID/cc; in data set [4] it was 5.2 %ID/cc; in [5], 3.8 %ID/cc; in data set [6], “Not Active”. For the same compound, the Drug uptake result in data set [7] is “Not Active”; in data set [8] it was “Not Active”; in [9], “Not Active”; in data set [10] it was “Not Active”; in [11], “Active”; in data set [12], “Active”. Also, the results for the Drug uptake entry in [13], in data set [14] and in data set [15] were “Active”, “Active” and “Not Active”, respectively.
